Reference: patent publication US12421249B2, “Inhibitors of APOL1 and methods of using same” (Vertex Pharmaceuticals Incorporated, priority 2020, dated 2025)

Legend:
[1] = molecular target: T1, APOL1 G1 (Homo sapiens, UniProt O14791, I384M/S342G); assay: Trypanosoma brucei brucei Lysis Assay Using APOL1 Recombinant Protein (AlamarBlue viability readout); format: cell-based; conditions: Trypanosome Assay; for IC50: IP50 = IC50 for cell proliferation, read-out: Trypanosome Assay IP50; for Emax: read-out: Trypanosome Assay Max Activity (%)
T1 sequence (O14791 28-398 S342G/I384M): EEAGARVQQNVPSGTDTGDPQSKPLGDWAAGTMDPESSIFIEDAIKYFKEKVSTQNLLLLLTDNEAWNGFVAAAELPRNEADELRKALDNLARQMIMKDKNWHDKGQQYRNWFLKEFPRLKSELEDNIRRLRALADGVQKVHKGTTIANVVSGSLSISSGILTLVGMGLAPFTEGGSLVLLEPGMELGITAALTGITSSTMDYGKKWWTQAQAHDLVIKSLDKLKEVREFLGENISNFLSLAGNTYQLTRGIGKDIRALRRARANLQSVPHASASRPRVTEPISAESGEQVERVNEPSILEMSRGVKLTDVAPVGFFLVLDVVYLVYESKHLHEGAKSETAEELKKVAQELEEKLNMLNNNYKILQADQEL
How it was run: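 Percent viability comes from AlamarBlue (resazurin→resorufin) fluorescence interpolated on a standard curve of known parasite numbers, with no-APOL1 wells as 100%. Parasites (Lister 427 bloodstream form, 120,000/well, serum-free assay medium) meet 0.05 μg/mL APOL1 (~EC90). Compounds span a 10-point series, 0.1% DMSO final.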

[2] = molecular target: T2, APOL1 (Homo sapiens, UniProt O14791); assay: Multi-Tox Assay (MultiTox-Fluor Multiplex Cytotoxicity Assay in tet-inducible APOL1 T-REx-HEK293 cells; Table 46 does not say which APOL1 variant G0/G1/G2); format: cell-based; conditions: APOL1 variant not given; for IC50: IP50 = IC50 for cell proliferation
T2 sequence (O14791 1-398 S342G/I384M): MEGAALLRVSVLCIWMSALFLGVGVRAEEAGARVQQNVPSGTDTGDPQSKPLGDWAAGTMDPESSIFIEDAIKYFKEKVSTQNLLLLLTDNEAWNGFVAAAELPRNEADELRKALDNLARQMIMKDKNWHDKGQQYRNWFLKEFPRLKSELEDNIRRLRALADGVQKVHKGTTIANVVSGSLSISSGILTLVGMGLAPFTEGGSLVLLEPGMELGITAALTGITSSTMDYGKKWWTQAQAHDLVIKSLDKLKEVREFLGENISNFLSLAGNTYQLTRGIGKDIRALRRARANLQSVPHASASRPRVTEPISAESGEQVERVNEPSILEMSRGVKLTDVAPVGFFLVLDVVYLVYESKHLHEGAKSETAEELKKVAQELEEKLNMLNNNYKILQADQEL

Row | SMILES | IC50 [1] [nM] | Emax [1] [%] | IC90 [2] [nM] | Multi-Tox Assay Max Activity (%) [2] [%] | IC50 [2] [nM]
1 | COCCOCCOc1ccc([C@@H]2C[C@]3(C[C@H](C)N2)OCCc2cc(Cl)sc23)cc1 (racemic) [Compound 36] | < 50 | 118 | < 50 | 100.0 | < 50
2 | C[C@H]1C[C@@]2(C[C@@H](c3ccccc3)N1)OCCc1cc(Cl)sc12 (racemic) [Compound 81] | < 50 |  |  |  | < 50
3 | Cc1nc([C@@H]2C[C@]3(C[C@H](C)N2)OCCc2cc(Cl)sc23)cn1C (racemic) [Compound 159] | > 500 | 63.5 |  |  | > 500
4 | CC1COC2(C[C@@H](c3cn(C)nn3)N[C@@H](C)C2)c2cc(Cl)sc21 (stereo in doubt) [Compound 12] | < 50 | 102 |  | 99.3 | < 50
5 | Cc1nc([C@@H]2C[C@]3(C[C@H](C)N2)OCCc2cc(Cl)sc23)c[nH]1 (racemic) [Compound 156] | > 500 | 85 |  |  | > 500
6 | CCc1cc2c(s1)C1(C[C@@H](c3cn(C)nn3)N[C@@H](C)C1)OCC2 (stereo in doubt) [Compound 6] | < 50 | 102 |  |  | < 50
7 | C[C@H]1C[C@@]2(C[C@@H](c3cn(C)nn3)N1)OCCc1c2sc(C(F)(F)F)c1CO [Compound 17, [(2′S,6′S, 7S)-2′-methyl-6′-(1-methyltriazol-4-yl)-2-(trifluoromethyl)spiro[4,5-dihydrothieno[2,3-c]pyran-7,4′-piperidine]-3-yl]methanol] | 50 to 500 | 102 |  |  | < 50
8 | CNC(=O)c1ccc(C2CC3(CC(C)N2)OCCc2cc(Cl)sc23)cc1 (stereo not shown) [Compound 41] | < 50 | 112 |  |  | < 50
9 | C[C@H]1C[C@@]2(C[C@@H](c3ncnn3C)N1)OCCc1cc(Cl)sc12 (racemic) [Compound 171] | > 500 | 14 |  |  | > 500
10 | C[C@H]1C[C@@]2(C[C@@H](c3cnn(CC(=O)N(C)C)c3)N1)OCCc1cc(Cl)sc12 [Compound 18, 2-[4-[(2S,6S)-2-chloro-6′-methyl-spiro[4,5-dihydrothieno[2,3-c]pyran-7,4′-piperidine]-2′-yl]pyrazol-1-yl]-N,N-dimethyl-acetamide] | 50 to 500 | 103 |  |  | < 50
11 | CC(=O)Nc1cccc([C@@H]2C[C@]3(C[C@H](C)N2)OCCc2cc(Cl)sc23)c1 (racemic) [Compound 113] | 50 to 500 | 97 |  | 100.0 | < 50
12 | Cc1nccnc1[C@@H]1C[C@]2(C[C@H](C)N1)OCCc1cc(Cl)sc12 (racemic) [Compound 164] | > 500 | 85 |  |  | > 500
13 | C[C@H]1C[C@@]2(C[C@@H](c3cccc4cn[nH]c34)N1)OCCc1cc(Cl)sc12 (racemic) [Compound 168] | > 500 | 54.5 |  |  | > 500
14 | CC(C)Cc1cc2c(s1)C1(C[C@@H](C)N[C@@H](C)C1)OCC2 (single isomer, unassigned) [Compound 201] | > 500 | 76.7 |  |  | 50 to 500
15 | CNC(=O)c1cccc(C2CC3(CC(C)N2)OCCc2cc(Cl)sc23)c1 (stereo not shown) [Compound 27] | < 50 | 112 |  |  | < 50
16 | C[C@H]1C[C@@]2(C[C@@H](c3cnn(CCO)c3)N1)OCCc1cc(Cl)sc12 (racemic) [Compound 56] | < 50 | 116 |  | 99.8 | < 50
17 | CCC1CC2(CC(c3cn(C)nn3)N1)OCCc1cc(Cl)sc12 (stereo not shown) [Compound 186, 2-chloro-2′-ethyl-6′-(1-methyltriazol-4-yl)spiro[4,5-dihydrothieno[2,3-c]pyran-7,4′-piperidine]] | 50 to 500 | 104 | 50 to 500 | 99.3 | < 50
18 | C[C@H]1C[C@@]2(C[C@@H](c3cn(CC(N)=O)nn3)N1)OCCc1cc(Cl)sc12 (racemic) [Compound 133] | 50 to 500 | 111 |  | 99.7 | 50 to 500
19 | CC1CC2(CC(c3cn(CC4CC4)nn3)N1)OCCc1cc(Cl)sc12 (stereo not shown) [Compound 122] | 50 to 500 | 106 |  |  | < 50
20 | Cc1nc([C@@H]2C[C@]3(C[C@H](C)N2)OCCc2cc(Cl)sc23)co1 (racemic) [Compound 104] | 50 to 500 | 100 |  | 99.3 | < 50

Row | SMILES | IC50 [1] [nM] | Emax [1] [%] | IC90 [2] [nM] | Multi-Tox Assay Max Activity (%) [2] [%] | IC50 [2] [nM]
21 | C[C@H]1C[C@@]2(C[C@@H](c3ccc(N(C)C)nc3)N1)OCCc1cc(Cl)sc12 (racemic) [Compound 89] | < 50 | 101 |  |  | < 50
22 | C[C@H]1C[C@@]2(C[C@@H](c3ccnnc3)N1)OCCc1cc(Cl)sc12 (racemic) [Compound 93] | 50 to 500 | 112 |  |  | < 50
23 | COc1nn(C)cc1[C@@H]1C[C@]2(C[C@H](C)N1)OCCc1cc(Cl)sc12 (racemic) [Compound 154] | > 500 | 96.5 |  |  | > 500
24 | CC1CC2(CC(C3CCOCC3)N1)OCCc1cc(Cl)sc12 (mixture of isomers) [Compound 216] | 50 to 500 | 104 |  |  | 50 to 500
25 | Cc1nc[nH]c1[C@@H]1C[C@]2(C[C@H](C)N1)OCCc1cc(Cl)sc12 (racemic) [Compound 161] | > 500 | 73 |  |  | > 500
26 | COCc1cc([C@@H]2C[C@]3(C[C@H](C)N2)OCCc2cc(Cl)sc23)no1 (racemic) [Compound 106] | < 50 | 107 |  |  | < 50
27 | C[C@H]1C[C@@]2(C[C@@H](c3ccccn3)N1)OCCc1cc(Cl)sc12 (racemic) [Compound 83] | < 50 | 111 |  |  | < 50
28 | C[C@H]1C[C@@]2(C[C@@H](c3cccn4ccnc34)N1)OCCc1cc(Cl)sc12 (stereo in doubt) [Compound 143] | 50 to 500 | 101 |  | 98.0 | 50 to 500
29 | Cc1cnc([C@@H]2C[C@]3(C[C@H](C)N2)OCCc2cc(Cl)sc23)o1 (racemic) [Compound 134] | 50 to 500 | 96.7 |  | 99.2 | 50 to 500
30 | C[C@H]1C[C@@]2(C[C@@H](c3cnn(C4CCS(=O)(=O)C4)c3)N1)OCCc1cc(Cl)sc12 (stereo in doubt) [Compound 97] | < 50 | 104 |  |  | < 50
31 | C[C@H]1C[C@@]2(C[C@@H](c3cnc(NC(C)(C)CO)nc3)N1)OCCc1cc(Cl)sc12 (racemic) [Compound 95] | 50 to 500 | 106 |  |  | < 50
32 | C[C@@H]1CC2(C[C@H](C)N1)OCCc1cc(C3CC(F)(F)C3)sc12 (single isomer, unassigned) [Compound 198] | 50 to 500 |  |  |  | 50 to 500
33 | CC1CC2(CC(c3ccc4c(c3)OCC(=O)N4)N1)OCCc1cc(Cl)sc12 (stereo not shown) [Compound 39] | < 50 | 116 |  |  | < 50
34 | C[C@H]1CC2(C[C@H](C)N1)OCCc1sc(C(F)(F)F)cc12 (stereo partly shown) [Compound 195] | > 500 | 50.7 |  |  | > 500
35 | C[C@H]1C[C@@]2(C[C@@H](c3cn(C)nn3)N1)OC[C@H](O)c1cc(C(F)(F)F)sc12 [Compound 180] | < 50 | 102 |  |  | < 50
36 | Cc1cc(C2CC3(CC(C)N2)OCCc2cc(Cl)sc23)ncn1 (stereo not shown) [Compound 43] | < 50 | 103 |  | 100.0 | < 50
37 | CC1CC2(CC(c3cn[nH]c3)N1)OCCc1cc(Cl)sc12 (stereo not shown) [Compound 31] | < 50 | 123 | < 50 | 100.0 | < 50
38 | C[C@@H]1CC2(C[C@H](C)N1)OCCc1c2sc(C(F)(F)F)c1CO (single isomer, unassigned) [Compound 208] | 50 to 500 | 103 |  |  | < 50
39 | COCC1CC2(CC(c3cn(C)nn3)N1)OCCc1cc(Cl)sc12 (stereo not shown) [Compound 190] | > 500 | 92.5 |  |  | 50 to 500
40 | C[C@H]1C[C@@]2(C[C@@H](c3ccnc(O)c3)N1)OCCc1cc(Cl)sc12 (racemic) [Compound 112] | 50 to 500 | 112 |  | 100.0 | < 50
